Measurements from patent US4650661A, “Enzyme inhibitors” (priority 1982, dated 1987).
Read-outs that look alike come from different tables or passages of the source. Blank lines part the entries; values can stand above or below the compound they belong to. Non-standard residues stand in square brackets, D forms with d. Residues, ends and D or L forms follow the SMILES beside them. *: point of attachment. Sta = CC(C)C[C@H](N)[C@@H](O)CC(=O)O; Isovaleryl = CC(C)CC(=O)*

Key:
baboon renin = experiment: renin inhibition, baboon renin; type: biochemical; settings: preliminary results, read-out: IC50 against baboon renin (preliminary results)
Source text: (§1) This compound is the subject of Example 1 below.
The following are the fully detailed examples referred to earlier. The activity of H-176 (Example I) has already been given.

human renin = target: T1, human renin (Homo sapiens, UniProt P00797); experiment: renin inhibition, methods of published European specification; type: biochemical
T1 sequence (P00797 67-406): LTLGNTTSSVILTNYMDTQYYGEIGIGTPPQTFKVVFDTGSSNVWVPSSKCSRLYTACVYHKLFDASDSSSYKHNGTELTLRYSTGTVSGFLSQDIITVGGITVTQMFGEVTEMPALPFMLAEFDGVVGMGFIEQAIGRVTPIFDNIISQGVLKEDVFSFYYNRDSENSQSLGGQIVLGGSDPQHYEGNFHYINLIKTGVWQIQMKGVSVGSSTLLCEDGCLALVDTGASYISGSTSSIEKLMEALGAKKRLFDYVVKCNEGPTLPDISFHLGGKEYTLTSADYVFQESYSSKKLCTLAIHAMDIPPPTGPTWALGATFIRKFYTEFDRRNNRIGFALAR
Source text: as §1

acid proteases = settings: cited from earlier work

IC50 (baboon renin): 0.012 µM
IC50 (human renin; preliminary results, read-out: IC50 against human renin (preliminary results)): 0.009 µM
Compound: H-PHPFH[Sta]VIHK-OH [Example H-189]

IC50 (human renin; read-out: IC50 against human renin): 0.016 µM
Compound: H-HPFH[Sta]VIH-OH [Example H-176]

Compound: CC(C)CC(=O)N[C@H](C(=O)N[C@H](C(=O)N[C@@H](CC(C)C)[C@@H](O)CC(=O)N[C@@H](C)C(=O)N[C@@H](CC(C)C)[C@@H](O)CC(=O)O)C(C)C)C(C)C [pepstatin, iso-valeryl-L-valyl-L-valyl-S,S,-statyl-L-alanyl-S,S-statine] (Isovaleryl-VV[Sta]A[Sta]-OH)
inhibition of acid proteases (pepsin, cathepsin D, chymosin, renin) (acid proteases): inhibits acid proteases in general
